Test results reported in US20260092057A1, “BCL-XL/BCL-2 DEGRADERS AND USES THEREOF” (Kymera Therapeutics, Inc., priority 2022, published 2026).

Assays:
Caki-2 cells = experiment: CTG (CellTiter-Glo) cell viability assay, Caki-2; assay type: cell-based; conditions: Homo sapiens, CAKI-2, 72 h, Caki-2, 3-day; read-out: CTG Chempartner/PHA- Caki-2 3-day: Average external-IC50
Protocol: (§1) Compound-mediated viability effect on MOLT-4 and Caki-2 was quantitatively determined using the CellTiter-Glo® Luminescent Cell Viability Assay kit from Promega (Catalog number G7570) following manufacturer's recommended procedures. Briefly, MOLT-4 and Caki-2 cells were seeded into 384 well plates (Grenier Bio-One, Catalog number 781080) with a density of 10,000 cells per well. Compounds were then added to the assay plate with final top concentration of 10 µM and 1:3 dilution series with total of 9 doses. The final DMSO concentration is normalized to 0.2%. The assay plates were incubated at 37° C. for 3 days under 5% CO2. Then the assay plate was equilibrated at room temperature for 10 minutes. To determine cell viability, 30 uL CellTiter Glo reagent was added to each well and the assay plate was centrifuged at 1000 rpm for 30 second, incubated at room temperature for 10 min, and analyzed by detecting the luminescence using a multimode plate reader (EnVision 2105, PerkinElmer). The data was then analyzed by software Prism 7.0 from GraphPad and the dose response curves are fit using a three-parameter logistic equation to calculate IC50.
(§2) The letter codes for MOLT-4 IC50 include: A (<0.1 μM); B (0.1-1.0 μM); C (>1.0-3.0 μM); and D (>3.0 μM). The letter codes for Caki-2 IC50 include: A (<5 μM); B (5-10 μM); C (>10-30.0 μM); and D (>30.0 μM).

MOLT-4 cells = experiment: CTG (CellTiter-Glo) cell viability assay, MOLT-4; assay type: cell-based; conditions: Homo sapiens, MOLT-4, 72 h, MOLT-4, 3 day; read-out: CTG Cell Viability Assay - MOLT-4 3 day: Average external-IC50
Protocol: as §1, §2

Row | Compound | IC50 (Caki-2 cells) | IC50 (MOLT-4 cells)
1 | Cc1ncsc1-c1ccc([C@H](C)NC(=O)[C@@H]2C[C@@H](O)CN2C(=O)[C@@H](NC(=O)CCCCCC(=O)N2CCN(CC[C@H](CSc3ccccc3)Nc3ccc(S(=O)(=O)NC(=O)c4ccc(N5CC6(CCC6)C5)cc4)cc3S(=O)(=O)C(F)(F)F)CC2)C(C)(C)C)cc1 [I-45] | > 30000 nM | > 3000 nM
2 | Cc1ncsc1-c1ccc([C@H](C)NC(=O)[C@@H]2C[C@@H](O)CN2C(=O)[C@@H](NC(=O)CCCCCCC(=O)N2CCN(C[C@]3(C)CCC(c4ccc(Cl)cc4)=C(CN4CCN(c5ccc(C(=O)NS(=O)(=O)c6ccc(NCCN7CCOCC7)c(S(=O)(=O)C(F)(F)F)c6)c(Oc6cnc7[nH]ccc7c6)c5)CC4)C3)CC2)C(C)(C)C)cc1 [I-93] | > 30000 nM | 1000 to 3000 nM
3 | Cc1ncsc1-c1ccc([C@H](C)NC(=O)[C@@H]2C[C@@H](O)CN2C(=O)[C@@H](NC(=O)CCCCCC(=O)N2CCN(CCCNc3ccc(S(=O)(=O)NC(=O)c4ccc(N5CCN(C)CC5)cc4Oc4cnc5[nH]ccc5c4)cc3S(=O)(=O)C(F)(F)F)CC2)C(C)(C)C)cc1 [I-57] | > 30000 nM | > 3000 nM
4 | Cc1ncsc1-c1ccc([C@H](C)NC(=O)[C@@H]2C[C@@H](O)CN2C(=O)[C@@H](NC(=O)CCCCCC(=O)N2CC3(CN(CCCNc4ccc(S(=O)(=O)NC(=O)c5ccc(N6CCN(CC7=C(c8ccc(Cl)cc8)CC(C)(C)CC7)CC6)cc5Oc5cnc6[nH]ccc6c5)cc4S(=O)(=O)C(F)(F)F)C3)C2)C(C)(C)C)cc1 [I-107] | > 30000 nM | 100 to 1000 nM
5 | Cc1ncsc1-c1ccc([C@H](C)NC(=O)[C@@H]2C[C@@H](O)CN2C(=O)[C@@H](NC(=O)CCCCCC(=O)NCC[C@H](CSc2ccccc2)Nc2ccc(S(=O)(=O)NC(=O)c3ccc(N4CCC([C@@H](O)c5ccccc5-c5ccc(Cl)cc5)CC4)cc3)cc2S(=O)(=O)C(F)(F)F)C(C)(C)C)cc1 [I-82] | 10000 to 30000 nM | 1000 to 3000 nM
6 | Cc1ncsc1-c1ccc([C@H](C)NC(=O)[C@@H]2C[C@@H](O)CN2C(=O)[C@@H](NC(=O)CCCCCN2CCC(CNc3ccc(S(=O)(=O)NC(=O)c4ccc(N5CCN(CC6=C(c7ccc(Cl)cc7)CC(C)(C)CC6)CC5)cc4Oc4cnc5[nH]ccc5c4)cc3S(=O)(=O)C(F)(F)F)CC2)C(C)(C)C)cc1 [I-75] | > 30000 nM | 100 to 1000 nM
7 | Cc1ncsc1-c1ccc([C@H](C)NC(=O)[C@@H]2C[C@@H](O)CN2C(=O)[C@@H](NC(=O)CCCCCCN2CCN(CCCNc3ccc(S(=O)(=O)NC(=O)c4ccc(N5CCN(CC6=C(c7ccc(Cl)cc7)CC(C)(C)CC6)CC5)cc4Oc4cnc5[nH]ccc5c4)cc3S(=O)(=O)C(F)(F)F)CC2)C(C)(C)C)cc1 [I-137] | > 30000 nM | < 100 nM
8 | Cc1ncsc1-c1ccc([C@H](C)NC(=O)[C@@H]2C[C@@H](O)CN2C(=O)[C@@H](NC(=O)CCCCCCCCC(=O)NCc2ccc(-c3ccc(Cl)cc3)c(CN3CCN(c4ccc(C(=O)NS(=O)(=O)c5ccc(N[C@H](CCN(C)C)CSc6ccccc6)c([N+](=O)[O-])c5)cc4)CC3)c2)C(C)(C)C)cc1 [I-20] | > 30000 nM | > 3000 nM
9 | Cc1ncsc1-c1ccc([C@H](C)NC(=O)[C@@H]2C[C@@H](O)CN2C(=O)[C@@H](NC(=O)CCCC(=O)N2CCN(CCCNc3ccc(S(=O)(=O)NC(=O)c4ccc(N5CCN(CC6=C(c7ccc(Cl)cc7)CC(C)(C)CC6)CC5)cc4Oc4cnc5[nH]ccc5c4)cc3S(=O)(=O)C(F)(F)F)CC2)C(C)(C)C)cc1 [I-78] | > 30000 nM | > 3000 nM
10 | Cc1ncsc1-c1ccc([C@H](C)NC(=O)[C@@H]2C[C@@H](O)CN2C(=O)[C@@H](NC(=O)CCCCC(=O)N2CCC3(CCN(Cc4ccc(-c5ccc(Cl)cc5)c(CN5CCN(c6ccc(C(=O)NS(=O)(=O)c7ccc(N[C@H](CCN(C)C)CSc8ccccc8)c([N+](=O)[O-])c7)cc6)CC5)c4)CC3)CC2)C(C)(C)C)cc1 [I-17] | > 30000 nM | > 3000 nM
11 | Cc1ncsc1-c1ccc([C@H](C)NC(=O)[C@@H]2C[C@@H](O)CN2C(=O)[C@@H](NC(=O)CCCCCC(=O)N2CCN(c3ccc(-c4ccc(Cl)cc4)c(CN4CCN(c5ccc(C(=O)NS(=O)(=O)c6ccc(NCCCN(C)C)c(S(=O)(=O)C(F)(F)F)c6)c(Oc6cnc7[nH]ccc7c6)c5)CC4)c3)CC2)C(C)(C)C)cc1 [I-99] | > 30000 nM | > 3000 nM
12 | Cc1ncsc1-c1ccc([C@H](C)NC(=O)[C@@H]2C[C@@H](O)CN2C(=O)[C@@H](NC(=O)CCCCCC(=O)NCCCNc2ccc(S(=O)(=O)NC(=O)c3ccc(N4CCN(CC5=C(c6ccc(Cl)cc6)CC(C)(C)CC5)CC4)cc3Oc3cnc4[nH]ccc4c3)cc2S(=O)(=O)C(F)(F)F)C(C)(C)C)cc1 [I-76] | > 30000 nM | > 3000 nM
13 | Cc1ncsc1-c1ccc([C@H](C)NC(=O)[C@@H]2C[C@@H](O)CN2C(=O)[C@@H](NC(=O)CCCCCC(=O)N2CCN(CC[C@H](CSc3ccccc3)Nc3ccc(S(=O)(=O)NC(=O)c4ccc(N5CCC(N(C)C)CC5)cc4)cc3S(=O)(=O)C(F)(F)F)CC2)C(C)(C)C)cc1 [I-48] | > 30000 nM | > 3000 nM
14 | Cc1ncsc1-c1ccc([C@H](C)NC(=O)[C@@H]2C[C@@H](O)CN2C(=O)[C@@H](NC(=O)CCCCCC(=O)N2CCN(CC[C@H](CSc3ccccc3)Nc3ccc(S(=O)(=O)NC(=O)c4ccc(N5CC6CN(C)CC6C5)cc4)cc3S(=O)(=O)C(F)(F)F)CC2)C(C)(C)C)cc1 (stereo partly drawn) [I-47] | > 30000 nM | > 3000 nM
15 | Cc1ncsc1-c1ccc([C@H](C)NC(=O)[C@@H]2C[C@@H](O)CN2C(=O)[C@@H](NC(=O)CCCCCN(CCO)CCCNc2ccc(S(=O)(=O)NC(=O)c3ccc(N4CCN(CC5=C(c6ccc(Cl)cc6)CC(C)(C)CC5)CC4)cc3Oc3cnc4[nH]ccc4c3)cc2S(=O)(=O)C(F)(F)F)C(C)(C)C)cc1 [I-100] | > 30000 nM | > 3000 nM
16 | Cc1ncsc1-c1ccc([C@H](C)NC(=O)[C@@H]2C[C@@H](O)CN2C(=O)[C@@H](NC(=O)CCC2CCN(CCCNc3ccc(S(=O)(=O)NC(=O)c4ccc(N5CCN([C@H](O)c6ccccc6-c6ccc(Cl)cc6)CC5)cc4Oc4cnc5[nH]ccc5c4)cc3S(=O)(=O)C(F)(F)F)CC2)C(C)(C)C)cc1 [I-129] | > 30000 nM | > 3000 nM
17 | C#Cc1ccc(C(CO)NC(=O)[C@@H]2C[C@@H](O)CN2C(=O)[C@@H](NC(=O)CCCCCCC(=O)N2CCN(C[C@]3(C)CCC(c4ccc(Cl)cc4)=C(CN4CCN(c5ccc(C(=O)NS(=O)(=O)c6ccc(NCCCN7CCOCC7)c(S(=O)(=O)C(F)(F)F)c6)c(Oc6cnc7[nH]ccc7c6)c5)CC4)C3)CC2)C(C)(C)C)cc1 (stereo partly drawn) [I-139] | > 30000 nM | < 100 nM
18 | Cc1ncsc1-c1ccc([C@H](C)NC(=O)[C@@H]2C[C@@H](O)CN2C(=O)[C@@H](NC(=O)CCCC(=O)N2CCN(CC[C@H](CSc3ccccc3)Nc3ccc(S(=O)(=O)NC(=O)c4ccc(N5CCC([C@@H](O)c6ccccc6-c6ccc(Cl)cc6)CC5)cc4)cc3S(=O)(=O)C(F)(F)F)CC2)C(C)(C)C)cc1 [I-110] | > 30000 nM | 100 to 1000 nM
19 | Cc1ncsc1-c1ccc([C@H](C)NC(=O)[C@@H]2C[C@@H](O)CN2C(=O)[C@@H](NC(=O)CCCCCC(=O)N2CCN(Cc3ccc(-c4ccc(Cl)cc4)c([C@H](O)C4CCN(c5ccc(C(=O)NS(=O)(=O)c6ccc(NCCCN(C)C)c(S(=O)(=O)C(F)(F)F)c6)c(Oc6cnc7[nH]ccc7c6)c5)CC4)c3)CC2)C(C)(C)C)cc1 [I-111] | > 30000 nM | > 3000 nM
20 | Cc1ncsc1-c1ccc([C@H](C)NC(=O)[C@@H]2C[C@@H](O)CN2C(=O)[C@@H](NC(=O)C2CCN(c3ccc(S(=O)(=O)NC(=O)c4ccc(-c5ccc(Cl)cc5)c(CN5CCN(c6ccc(C(=O)NS(=O)(=O)c7ccc(N[C@H](CCN(C)C)CSc8ccccc8)c([N+](=O)[O-])c7)cc6)CC5)c4)cc3)CC2)C(C)(C)C)cc1 [I-15] | > 30000 nM | > 3000 nM
21 | Cc1ncsc1-c1ccc([C@H](C)NC(=O)[C@@H]2C[C@@H](O)CN2C(=O)[C@@H](NC(=O)CCCCC(=O)N2C[C@H]3C[C@@H]2CN3Cc2ccc(-c3ccc(Cl)cc3)c(CN3CCN(c4ccc(C(=O)NS(=O)(=O)c5ccc(N[C@H](CCN(C)C)CSc6ccccc6)c([N+](=O)[O-])c5)cc4)CC3)c2)C(C)(C)C)cc1 [I-16] | > 30000 nM | > 3000 nM
22 | Cc1ncsc1-c1ccc([C@H](C)NC(=O)[C@@H]2C[C@@H](O)CN2C(=O)[C@@H](NC(=O)CCCc2ccc(NCCNc3ccc(S(=O)(=O)NC(=O)c4ccc(N5CCN(CC6=C(c7ccc(Cl)cc7)CC(C)(C)CC6)CC5)cc4Oc4cnc5[nH]ccc5c4)cc3S(=O)(=O)C(F)(F)F)cc2)C(C)(C)C)cc1 [I-101] | > 30000 nM | > 3000 nM
23 | C#Cc1ccc([C@H](C)NC(=O)[C@@H]2C[C@@H](O)CN2C(=O)[C@@H](NC(=O)CCCCCC(=O)N2CCN(CCCNc3ccc(S(=O)(=O)NC(=O)c4ccc(N5CCN(CC6=C(c7ccc(Cl)cc7)CC(C)(C)CC6)CC5)cc4Oc4cnc5[nH]ccc5c4)cc3S(=O)(=O)C(F)(F)F)CC2)C(C)(C)C)c(OC)c1 [I-103] | > 30000 nM | 100 to 1000 nM
24 | C#Cc1ccc(CNC(=O)[C@@H]2C[C@@H](O)CN2C(=O)[C@@H](NC(=O)C2(F)CC2)C(C)(C)C)c(OCCCCCCC(=O)N2CCN(CCCNc3ccc(S(=O)(=O)NC(=O)c4ccc(N5CCN(CC6=C(c7ccc(Cl)cc7)CC(C)(C)CC6)CC5)cc4Oc4cnc5[nH]ccc5c4)cc3S(=O)(=O)C(F)(F)F)CC2)c1 [I-104] | > 30000 nM | > 3000 nM
